Series [1] deals with Serine/threonine-protein kinase B-raf (Homo sapiens, UniProt P15056). Put plainly: Inhibition of wild type BRAF (unknown origin).
The target in series [2] is Serine/threonine-protein kinase B-raf (Homo sapiens, UniProt P15056, V600E). Put plainly: Inhibition of BRAF V600E mutant (unknown origin).
Series [3] addresses RAF proto-oncogene serine/threonine-protein kinase (Homo sapiens, UniProt P04049). Put plainly: Inhibition of C-RAF (unknown origin).
In series [4] the test system is A549. Put plainly: Antiproliferative activity against human A549 cells. The class given is functional, cell-based.
For series [5], the system named is PC-3. The series is described as follows: Antiproliferative activity against human PC-3 cells. It counts as functional, cell-based.
The test system of series [6] is HepG2. Put plainly: Antiproliferative activity against human HepG2 cells assessed as reduction in cell growth after 72 hrs by MTT assay. Conditions: HepG2, 72 h. It counts as functional, cell-based.
The test system of series [7] is HCT-116. Put plainly: Antiproliferative activity against human HCT-116 cells assessed as reduction in cell viability measured after 72 hrs by MTT assay. It counts as functional, cell-based. Conditions: HCT-116, 72 h.
The subject of series [8] is A-375. The series is described as follows: Antiproliferative activity against human A-375 cells assessed as reduction in cell viability measured after 72 hrs by MTT assay. The class given is functional, cell-based. The settings on record: A-375, 72 h.
Series [9] relates to MCF7. Put plainly: Antiproliferative activity against human MCF7 cells assessed as reduction in cell viability measured after 72 hrs by MTT assay. It counts as functional, cell-based. Conditions: MCF7, 72 h.
Series [10] relates to MIA PaCa-2. Put plainly: Antiproliferative activity against human MIA PaCa-2 cells assessed as inhibition of cell growth incubated for 48 hrs by MTS assay. It counts as functional, cell-based. The settings on record: MIA PaCa-2, 48 h.
Series [11] in a line: Inhibition of VEGFR (unknown origin). The arrangement: species or system Homo sapiens.
For series [12], the target named is Vascular endothelial growth factor receptor 2 (Homo sapiens, UniProt P35968). Put plainly: Inhibition of VEGFR2 (unknown origin).
Series [13] deals with EA.hy 926. Put plainly: Antiproliferative activity against human EA.hy 926 cells assessed as reduction in cell viability incubated for 48 hrs by MTT assay. Conditions: EA.hy 926, 48 h. The class given is functional, cell-based.
In series [14] the test system is U-87 MG. Put plainly: Antiproliferative activity against human U87 cells assessed as inhibition of cell viability incubated for 72 hrs by MTT assay. The class given is functional, cell-based, U-87MG ATCC.
The nature of series [15]: Half life in human at 140 mg.
A short description of series [16]: Tmax in human at 140 mg. It counts as ADME.
Series [17] in a line: Cmax in human at 140 mg. The class given is ADME.

Serine/threonine-protein kinase B-raf (Homo sapiens, UniProt P15056), sequence (P15056 whole entry): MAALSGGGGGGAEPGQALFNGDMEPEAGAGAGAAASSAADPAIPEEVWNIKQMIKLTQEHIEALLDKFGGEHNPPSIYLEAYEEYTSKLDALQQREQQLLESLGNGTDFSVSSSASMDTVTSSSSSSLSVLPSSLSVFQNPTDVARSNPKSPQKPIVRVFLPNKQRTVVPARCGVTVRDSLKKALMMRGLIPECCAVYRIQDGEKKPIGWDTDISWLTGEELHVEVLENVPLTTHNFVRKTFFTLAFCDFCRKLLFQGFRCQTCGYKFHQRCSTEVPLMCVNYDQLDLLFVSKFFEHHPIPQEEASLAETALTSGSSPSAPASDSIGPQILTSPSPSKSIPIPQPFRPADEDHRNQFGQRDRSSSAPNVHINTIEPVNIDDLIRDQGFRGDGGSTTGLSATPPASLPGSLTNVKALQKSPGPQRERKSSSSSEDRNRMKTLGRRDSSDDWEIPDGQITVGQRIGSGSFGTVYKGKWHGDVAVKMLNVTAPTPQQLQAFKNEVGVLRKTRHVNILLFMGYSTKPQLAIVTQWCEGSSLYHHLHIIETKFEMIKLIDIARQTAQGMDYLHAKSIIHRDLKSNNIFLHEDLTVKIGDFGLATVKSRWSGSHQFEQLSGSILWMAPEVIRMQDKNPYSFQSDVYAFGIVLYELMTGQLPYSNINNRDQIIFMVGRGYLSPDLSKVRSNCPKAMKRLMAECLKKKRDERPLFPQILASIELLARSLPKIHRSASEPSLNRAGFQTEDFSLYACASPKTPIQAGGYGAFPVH
Vascular endothelial growth factor receptor 2, sequence (P35968 whole entry): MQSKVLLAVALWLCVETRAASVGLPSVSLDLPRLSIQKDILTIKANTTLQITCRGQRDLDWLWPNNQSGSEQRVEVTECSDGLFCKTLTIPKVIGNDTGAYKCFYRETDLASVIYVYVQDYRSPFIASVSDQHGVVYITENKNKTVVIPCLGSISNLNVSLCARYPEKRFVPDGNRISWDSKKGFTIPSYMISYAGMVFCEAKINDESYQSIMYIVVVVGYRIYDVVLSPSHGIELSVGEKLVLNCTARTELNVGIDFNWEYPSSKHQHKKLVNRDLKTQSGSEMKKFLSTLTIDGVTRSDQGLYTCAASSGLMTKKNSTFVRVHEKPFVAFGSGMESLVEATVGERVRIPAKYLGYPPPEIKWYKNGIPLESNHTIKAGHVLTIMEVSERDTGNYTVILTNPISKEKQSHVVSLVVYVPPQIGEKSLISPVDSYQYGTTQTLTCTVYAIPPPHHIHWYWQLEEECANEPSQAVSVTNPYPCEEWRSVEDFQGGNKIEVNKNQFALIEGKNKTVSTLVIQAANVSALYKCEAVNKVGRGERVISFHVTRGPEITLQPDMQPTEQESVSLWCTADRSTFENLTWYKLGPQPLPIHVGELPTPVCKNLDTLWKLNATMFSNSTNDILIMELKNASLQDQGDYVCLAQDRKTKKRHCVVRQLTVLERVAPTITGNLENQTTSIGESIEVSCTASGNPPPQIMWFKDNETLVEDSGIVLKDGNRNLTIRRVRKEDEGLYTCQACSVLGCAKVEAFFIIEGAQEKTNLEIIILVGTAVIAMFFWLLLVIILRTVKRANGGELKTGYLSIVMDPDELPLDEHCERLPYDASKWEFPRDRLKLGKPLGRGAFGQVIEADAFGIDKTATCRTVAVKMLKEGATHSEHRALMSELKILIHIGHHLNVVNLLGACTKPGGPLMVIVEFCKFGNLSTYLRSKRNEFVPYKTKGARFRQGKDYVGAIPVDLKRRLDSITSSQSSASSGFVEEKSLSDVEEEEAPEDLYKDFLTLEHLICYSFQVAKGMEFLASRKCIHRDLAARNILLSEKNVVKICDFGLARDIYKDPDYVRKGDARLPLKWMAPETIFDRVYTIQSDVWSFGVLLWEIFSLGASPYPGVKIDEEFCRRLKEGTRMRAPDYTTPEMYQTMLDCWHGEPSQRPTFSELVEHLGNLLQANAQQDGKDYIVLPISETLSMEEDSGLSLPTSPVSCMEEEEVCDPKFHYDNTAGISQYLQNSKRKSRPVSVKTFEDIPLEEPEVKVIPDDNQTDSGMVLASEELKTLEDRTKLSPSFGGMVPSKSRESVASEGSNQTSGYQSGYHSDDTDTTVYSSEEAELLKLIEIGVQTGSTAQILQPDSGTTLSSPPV
Serine/threonine-protein kinase B-raf (Homo sapiens, UniProt P15056, V600E), sequence (P15056 2-766 V600E limits assumed): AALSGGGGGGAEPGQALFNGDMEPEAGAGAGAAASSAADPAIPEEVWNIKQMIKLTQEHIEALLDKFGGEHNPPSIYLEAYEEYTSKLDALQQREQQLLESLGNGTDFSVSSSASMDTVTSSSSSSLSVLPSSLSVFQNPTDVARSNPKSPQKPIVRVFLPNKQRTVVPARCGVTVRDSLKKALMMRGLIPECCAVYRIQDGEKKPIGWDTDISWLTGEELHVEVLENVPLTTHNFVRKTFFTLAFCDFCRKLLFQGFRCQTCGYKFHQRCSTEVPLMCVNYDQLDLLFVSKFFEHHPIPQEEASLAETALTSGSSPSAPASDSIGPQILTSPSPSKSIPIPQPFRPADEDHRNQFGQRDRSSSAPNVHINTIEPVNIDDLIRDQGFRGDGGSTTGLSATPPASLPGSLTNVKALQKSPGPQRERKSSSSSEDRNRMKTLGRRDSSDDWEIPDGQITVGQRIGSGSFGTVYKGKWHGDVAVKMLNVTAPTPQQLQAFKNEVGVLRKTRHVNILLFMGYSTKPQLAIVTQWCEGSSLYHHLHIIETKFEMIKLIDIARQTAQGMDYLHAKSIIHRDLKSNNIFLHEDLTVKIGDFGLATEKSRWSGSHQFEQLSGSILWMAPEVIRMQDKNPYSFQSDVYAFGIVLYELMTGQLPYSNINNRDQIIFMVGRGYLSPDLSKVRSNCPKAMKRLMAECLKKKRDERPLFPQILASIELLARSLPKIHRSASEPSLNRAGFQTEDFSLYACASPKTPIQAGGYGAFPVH
RAF proto-oncogene serine/threonine-protein kinase, sequence (P04049 whole entry): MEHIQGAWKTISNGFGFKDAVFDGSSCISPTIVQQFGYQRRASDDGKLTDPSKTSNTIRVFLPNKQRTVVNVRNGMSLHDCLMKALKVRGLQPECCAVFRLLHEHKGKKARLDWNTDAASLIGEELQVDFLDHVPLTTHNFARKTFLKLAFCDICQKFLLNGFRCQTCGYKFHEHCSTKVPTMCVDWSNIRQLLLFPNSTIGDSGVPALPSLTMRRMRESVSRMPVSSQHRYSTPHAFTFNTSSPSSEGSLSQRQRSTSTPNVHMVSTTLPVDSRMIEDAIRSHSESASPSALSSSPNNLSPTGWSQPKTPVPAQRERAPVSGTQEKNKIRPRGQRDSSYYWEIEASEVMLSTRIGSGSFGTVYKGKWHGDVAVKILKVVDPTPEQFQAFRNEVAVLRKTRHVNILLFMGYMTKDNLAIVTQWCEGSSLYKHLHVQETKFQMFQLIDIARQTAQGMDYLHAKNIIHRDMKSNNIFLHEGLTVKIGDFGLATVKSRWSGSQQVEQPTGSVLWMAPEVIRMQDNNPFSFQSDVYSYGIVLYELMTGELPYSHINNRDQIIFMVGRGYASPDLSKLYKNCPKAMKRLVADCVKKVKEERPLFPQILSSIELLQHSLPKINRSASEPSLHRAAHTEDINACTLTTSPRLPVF

Regarding `O=C(CSc1nc2ccccc2c(=O)n1-c1ccc(Cl)cc1)Nc1ccc(-c2nc3ccccc3[nH]2)cc1`, the IC50 in [1] amounted to 20 nM; in series [2], 2 nM; in series [3], 100 nM; in series [4] it was 100 nM; in series [5], 100 nM; in series [6], 100 nM. The IC50 in series [7] is 100 nM; in series [8] it was 100 nM; in [9], 100 nM; in [10], 100 nM; in [11] it was more than 100000 nM.
Consider `O=C(Nc1ccc(Oc2ccnc(C(=O)NCCCCNC(=O)C3CC4C=CC3C4)c2)cc1)Nc1ccc(Cl)c(C(F)(F)F)c1` (configuration not stated), for which the figures for the IC50 in series [12], in series [13] and in series [14] were 230 nM, 47 nM and 63600 nM, respectively.
On to `COc1cc2nccc(Oc3ccc(NC(=O)C4(C(=O)Nc5ccc(F)cc5)CC4)cc3)c2cc1OC` [CABOZANTINIB], for which the half-life in [15] is 112 h. Besides, in series [16], the Tmax was 4 h. Moreover, the highest level in [17] (Cmax) was 554 ng/mL.

The values are drawn from ChEMBL document CHEMBL5500383, “Recent advances and future directions on small molecule VEGFR inhibitors in oncological conditions” (Eur J Med Chem, 2024).
